According to patent US20260335453A1, “ISOINDOLINONE-GLUTARIMIDE ANTIBODY CONJUGATES, AND USES THEREOF” (FIREFLY BIO, INC., priority 2023, published 2026):

How the values were obtained:
[1] = tested on: SKBR3 cells; test: Cell proliferation (Cell Titer Glow), SKBR3; assay type: cell-based; details: Homo sapiens, SK-BR-3; IG compounds, cell killing, 72 h
Procedure: (§1) Exemplary isoindolinone-glutarimide (IG) compounds of Table 1a, 1b and 1c were prepared and characterized according to the Examples herein. Certain exemplary IG compounds of(Table 1a were tested for their effects in inhibiting cellular proliferation, including CAL1 WSU-DLCL2, NCI-N87 and SKBR3. CAL51 is a human breast adenocarcinoma cell line with triple-negative status for expression of estrogen, progesterone and HER2 receptors. WSU-DLCL2 is a human B-Cell non-Hodgkin lymphoma cell line that expresses high levels of CD22. NCI-N87 is a human epithelial cell line established from a gastric carcinoma; SKBR3 is a human epithelial cell line established from a breast adenocarcinoma; both NCI-N87 and SKBR3 cell lines express high levels of HER2 receptor. […]
(§2) One day prior to treatment with compounds or IGAC, cells were plated in white 96-well plates (SKBR: 3000 cells/well; CAL-51: 4000 cells/well). Compounds or ADCs were added in a serial-dilution manner reaching the indicated concentrations. Plates were incubated at 37 degrees for 96h (ADCs) or 72h (compounds) whereafter a 1:10 dilution of Cell Titer Glow was used to measure relative cell numbers after 10 min of incubation at room temperature.

[2] = tested on: WSU-DLCL2 cells; test: Cell proliferation (Cell Titer Glow), WSU-DLCL2; assay type: cell-based; details: Homo sapiens, WSUDLCL2; IG compounds, cell killing, 72 h
Procedure: (§3) Exemplary isoindolinone-glutarimide (IG) compounds of Table 1a, 1b and 1c were prepared and characterized according to the Examples herein. Certain exemplary IG compounds of(Table 1a were tested for their effects in inhibiting cellular proliferation, including CAL1 WSU-DLCL2, NCI-N87 and SKBR3. CAL51 is a human breast adenocarcinoma cell line with triple-negative status for expression of estrogen, progesterone and HER2 receptors. WSU-DLCL2 is a human B-Cell non-Hodgkin lymphoma cell line that expresses high levels of CD22. NCI-N87 is a human epithelial cell line established from a gastric carcinoma; SKBR3 is a human epithelial cell line established from a breast adenocarcinoma; both NCI-N87 and SKBR3 cell lines express high levels of HER2 receptor.
(§4) Exemplary embodiments of the isoindolinone-glutarimide antibody conjugates (IGAC) of Formula I are compiled in Table 3. Assessment of IGAC biological activity and other properties may be conducted according to the methods of Example 102. In some instances, the Cell proliferation dose response IC50 value is an average of repetitive assays. Certain exemplary IGAC were tested for their effects in inhibiting cellular proliferation, including CAL51; WSU-DLCL2, NCI-N87 and SKBR3 cell lines. CAL51 is a human breast adenocarcinoma cell line with triple-negative status for expression of estrogen, progesterone and HER2 receptors. WSU-DLCL2 is a human B-Cell non-Hodgkin lymphoma cell line that expresses high levels of CD22. NCI-N87 is a human epithelial cell line established from a gastric carcinoma; SKBR3 is a human epithelial cell line established from a breast adenocarcinoma; both NCI-N87 and SKBR3 cell lines express high levels of HER2 receptor.
On the day of treatment, 10,000 suspension cells/well were plated in white 96-well plates. Compounds or ADCs were added in a serial-dilution manner reaching the indicated concentrations. Plates were incubated at 37 degrees for 72 h whereafter a 1:10 dilution of Cell Titer Glow was used to measure relative cell numbers after 10 min of incubation at room temperature.

[3] = tested on: CAL51 cells; test: Degradation assay evaluated by immunofluorescence staining, CAL51; assay type: cell-based, human; details: Homo sapiens, CAL-51, CAL51, 6 h
Procedure: (§5) One day prior to treatment with compounds, black 96 well plates were coated with fibronectin (0.2 μg/ml in PBS) for 45 min at room temperature and subsequently washed with PBS. CAL-51 or SKBR3 cells were seeded at 30K cells/well (1001) and incubated overnight at 37° C. whereafter compounds were added reaching indicated concentrations. 6 h after treatment the medium was removed, cells were washed with PBS and fixed with 10% formalin for 20 mins at room temperature. Following two PBS washes (150 μl), cells were permeabilized in 0.1% Triton X-100 in PBS for 8 mins at room temperature and subsequently washed again twice with PBS. Cells were blocked thereafter with 1% BSA in PBS for 45 mins. Primary antibody was diluted in blocking buffer and incubated with the cells overnight at 4° C. After three washes with PBS, cells were incubated with secondary antibody for 1 h at RT, washed and subsequently images were taken on an Operetta High-Content Imager.
(§6) For the determination of the DC50, a custom algorithm implemented in the PerkinElmer image analysis software Harmony-Acapella® was used.

[4] = tested on: SKBR3 cells; test: Degradation assay evaluated by immunofluorescence staining, SKBR3; assay type: cell-based; details: Homo sapiens, SK-BR-3, SKBR3, 6 h
Procedure: as §5, §6

[5] = tested on: CAL51 cells; test: Cell proliferation (Cell Titer Glow), CAL51; assay type: cell-based; details: Homo sapiens, CAL-51; IG compounds, cell killing, 72 h
Procedure: as §1, §2

[6] = tested on: NCI-N87 cells; test: Cell proliferation (Cell Titer Glow), NCI-N87; assay type: cell-based; details: Homo sapiens, IG compounds, cell killing, 72 h
Procedure: as §3, §4
One day prior to treatment with compounds or IGAC, cells were plated in white 96-well plates (SKBR: 3000 cells/well; CAL-51: 4000 cells/well). Compounds or ADCs were added in a serial-dilution manner reaching the indicated concentrations. […]

SMILES	DC50 [3] [nM]	DC50 [4] [nM]	IC50 [1] [nM]	IC50 [2] [nM]	Dmax [3] [%]	Dmax [4] [%]	IC50 [5] [nM]	IC50 [6] [nM]
Cc1c(Cl)cc(NC(=O)NCc2ccc3c(c2)CN(C2CCC(=O)NC2=O)C3=O)cc1N1CCOC1=O (stereo not shown) [IG-54, 1-(3-chloro-4-methyl-5-(2-oxooxazolidin-3-yl)phenyl)-3-((2-(2,6-dioxopiperidin-3-yl)-1-oxoisoindolin-5-yl)methyl)urea]	–	–	14.5	6.9	–	–	–	–
CNCCOCCc1ccc(NC(=O)NCc2ccc3c(c2)CN(C2CCC(=O)NC2=O)C3=O)cc1Cl (stereo not shown) [IG-3, 1-(3-chloro-4-(2-(2-(methylamino)ethoxy)ethyl)phenyl)-3-((2-(2,6-dioxopiperidin-3-yl)-1-oxoisoindolin-5-yl)methyl)urea]	345 ± 135	185	77.5	66.4	79.4 ± 3.63	78.2	3010	–
CC(C)c1cc(NC(=O)NCc2ccc3c(c2O)CN(C2CCC(=O)NC2=O)C3=O)ccc1C(F)(F)F (stereo not shown) [IG-51, 1-((2-(2,6-dioxopiperidin-3-yl)-4-hydroxy-1-oxoisoindolin-5-yl)methyl)-3-(3-isopropyl-4-(trifluoromethyl)phenyl)urea]	–	–	15.7	10.2	–	–	–	–
O=C1CCC(N2Cc3c(ccc(CNC(=O)Nc4cccc(C5(C(F)(F)F)CC5)c4)c3O)C2=O)C(=O)N1 (stereo not shown) [IG-42, 1-((2-(2,6-dioxopiperidin-3-yl)-4-hydroxy-1-oxoisoindolin-5-yl)methyl)-3-(3-(1-(trifluoromethyl)cyclopropyl)phenyl)urea]	< 5.41	2	2.73	1.43	96.1 ± 5.89	88.6	25	2.57
O=C1CCC(N2Cc3c(ccc(CNC(=O)Nc4cccc5ccccc45)c3O)C2=O)C(=O)N1 (stereo not shown) [IG-38, 1-((2-(2,6-dioxopiperidin-3-yl)-4-hydroxy-1-oxoisoindolin-5-yl)methyl)-3-(naphthalen-1-yl)urea]	113	10.6	–	–	93.7	94.1	35.9	–
O=C1CCC(N2Cc3c(ccc(CNC(=O)Nc4ccc(Br)c(Cl)c4)c3O)C2=O)C(=O)N1 (stereo not shown) [IG-40, 1-(4-bromo-3-chlorophenyl)-3-((2-(2,6-dioxopiperidin-3-yl)-4-hydroxy-1-oxoisoindolin-5-yl)methyl)urea]	–	–	21.3	–	–	–	–	–
O=C1CCC(N2Cc3c(ccc(CNC(=O)C(F)(F)c4ccc(Cl)cc4)c3O)C2=O)C(=O)N1 (stereo not shown) [IG-52, 2-(4-chlorophenyl)-N-((2-(2,6-dioxopiperidin-3-yl)-4-hydroxy-1-oxoisoindolin-5-yl)methyl)-2,2-difluoroacetamide]	–	–	443	> 2000	–	–	–	–
O=C1CCC(N2Cc3c(ccc(CNC(=O)Nc4ccc(I)c(Cl)c4)c3O)C2=O)C(=O)N1 (stereo not shown) [IG-41, 1-(3-chloro-4-iodophenyl)-3-((2-(2,6-dioxopiperidin-3-yl)-4-hydroxy-1-oxoisoindolin-5-yl)methyl)urea]	–	–	17.1	–	–	–	25	–
Cc1ccc(NC(=O)NCc2ccc3c(c2)CN(C2CCC(=O)NC2=O)C3=O)cc1O (stereo not shown) [IG-12, 1-((2-(2,6-dioxopiperidin-3-yl)-1-oxoisoindolin-5-yl)methyl)-3-(3-hydroxy-4-methylphenyl)urea]	118 ± 35	52.2	–	–	96.8 ± 4.12	98.3	1250	–
CNCCOCCc1ccc(NC(=O)CCc2ccc3c(c2)CN(C2CCC(=O)NC2=O)C3=O)cc1Cl (stereo not shown) [IG-2, N-(3-chloro-4-(2-(2-(methylamino)ethoxy)ethyl)phenyl)-3-(2-(2,6-dioxopiperidin-3-yl)-1-oxoisoindolin-5-yl)propenamide]	–	–	> 10000	> 10000	< 5	–	> 10000	–
CC(C)(C)c1ccc(NC(=O)NCc2ccc3nnn(C4CCC(=O)NC4=O)c(=O)c3c2)c(O)c1 (stereo not shown) [IG-49, 1-(4-(tert-butyl)-2-hydroxyphenyl)-3-((3-(2,6-dioxopiperidin-3-yl)-4-oxo-3,4-dihydrobenzo[d][1,2,3]triazin-6-yl)methyl)urea]	–	–	41.7	–	–	–	–	–

More lines, main results first:

DC50 [3] [nM]	DC50 [4] [nM]	SMILES	IC50 [1] [nM]	IC50 [2] [nM]	Dmax [3] [%]	Dmax [4] [%]	IC50 [5] [nM]	IC50 [6] [nM]
35.8 ± 20.4	< 2.26	Cc1ccc(NC(=O)NCc2ccc3c(c2O)CN(C2CCC(=O)NC2=O)C3=O)cc1Cl (stereo not shown) [IG-15, 1-(3-chloro-4-methylphenyl)-3-((2-(2,6-dioxopiperidin-3-yl)-4-hydroxy-1-oxoisoindolin-5-yl)methyl)urea]	5.19	4.25	79.2 ± 9.1	91.1 ± 3.35	54.9	–
139	7.88	Cc1ccc(C(=O)C(=O)NCc2ccc3c(c2O)CN(C2CCC(=O)NC2=O)C3=O)cc1Cl (stereo not shown) [IG-37, 2-(3-chloro-4-methylphenyl)-N-((2-(2,6-dioxopiperidin-3-yl)-4-hydroxy-1-oxoisoindolin-5-y1)methyl)-2-oxoacetamide]	4.2	9.6	70.9	95.2	72.5	–
46.9	5.2	CC(C)(C)c1ccccc1NC(=O)NCc1ccc2c(c1O)CN(C1CCC(=O)NC1=O)C2=O (stereo not shown) [IG-28, 1-(2-(tert-butyl)phenyl)-3-((2-(2,6-dioxopiperidin-3-yl)-4-hydroxy-1-oxoisoindolin-5-yl)methyl)urea]	–	–	94.2	90.2	22.5	–
3.24 ± 2.18	< 0.7	Cc1ccc(NC(=O)NCc2ccc3c(c2)CN(C2CCC(=O)NC2=O)C3=O)cc1Cl (stereo not shown) [IG-1, 1-(3-chloro-4-methyl-phenyl)-3-[[2-(2,6-dioxo-3-piperidyl)-1-oxo-isoindolin-5-yl]methyl]urea]	1.77	1.23	101 ± 4.45	95.5 ± 4.9	10.8	1.48
81.4	42.7	O=C1CCC(N2Cc3c(ccc(CNC(=O)Nc4ccc5ccccc5c4)c3O)C2=O)C(=O)N1 (stereo not shown) [IG-39, 1-((2-(2,6-dioxopiperidin-3-yl)-4-hydroxy-1-oxoisoindolin-5-yl)methyl)-3-(naphthalen-2-yl)urea]	14.1	–	69.4	77.4	–	–
660 ± 997	4.62	Cc1ccc(NC(=O)NCc2cc3c(cc2O)C(=O)N(C2CCC(=O)NC2=O)C3)cc1Cl (stereo not shown) [IG-36, 1-(3-chloro-4-methylphenyl)-3-((2-(2,6-dioxopiperidin-3-yl)-6-hydroxy-1-oxoisoindolin-5-yl)methyl)urea]	3.5	4.95	78.5 ± 8.18	91.8	120	–
6.21	< 0.645	Cc1ccc(NC(=O)NCc2ccc3c(c2O)CN(C2CCC(=O)NC2=O)C3=O)cc1C(C)C (stereo not shown) [IG-50]	1.38	0.75	105	99.6 ± 0.614	–	1.63
